{"source": "patent US20020086278A1", "about": "“CHROMOGENIC MEDIA CONTAINING BLOOD OR HEMIN” (priority 1999, published 2002)", "format_in_all_cases": "cell-based", "key": {"[1]": {"tested_on": "Aeromonas hydrophilia (aehy)", "assay": "Example 3: colony color on chromogenic TSA II with 5% sheep blood (chromogen in medium)", "settings": "for Colony Color: CO2, 21 h"}, "[2]": {"tested_on": "Branhamella catarrhalis (brca)", "assay": "Example 3: colony color on chromogenic TSA II with 5% sheep blood (chromogen in medium)", "settings": "for Colony Color: CO2, 21 h"}, "[3]": {"tested_on": "Candida albicans (caal)", "assay": "Example 3: colony color on chromogenic TSA II with 5% sheep blood (chromogen in medium)", "settings": "for Colony Color: caal 10231, 24 h"}, "[4]": {"tested_on": "Citrobacter freundii (cifr)", "assay": "Example 3: colony color on chromogenic TSA II with 5% sheep blood (chromogen in medium)"}, "[5]": {"tested_on": "Entercoccus faecalis (enfa)", "assay": "Example 3: colony color on chromogenic TSA II with 5% sheep blood (chromogen in medium)"}, "[6]": {"tested_on": "E. faecium (enfu)", "assay": "Example 3: colony color on chromogenic TSA II with 5% sheep blood (chromogen in medium)", "settings": "for Colony Color: enfu 49032, 21 h"}, "[7]": {"tested_on": "E. coli (non-O157) (esco)"}, "[8]": {"tested_on": "Klebsiella pneumoniae (klpn)", "assay": "Example 3: colony color on chromogenic TSA II with 5% sheep blood (chromogen in medium)"}, "[9]": {"tested_on": "Pseudomonas aeruginosa (psae)", "assay": "Example 3: colony color on chromogenic TSA II with 5% sheep blood (chromogen in medium)", "settings": "for Colony Color: CO2, 21 h"}, "[10]": {"tested_on": "Salmonella spp. (sasp)", "settings": "for Colony Color: CO2, 21 h"}, "[11]": {"tested_on": "Serratia marcescens (sema)", "assay": "Example 3: colony color on chromogenic TSA II with 5% sheep blood (chromogen in medium)"}, "[12]": {"tested_on": "Streptococcus agalactiae (stag)", "assay": "Example 3: colony color on chromogenic TSA II with 5% sheep blood (chromogen in medium)"}, "[13]": {"tested_on": "Staphylococcus aureus (stau)", "assay": "Example 3: colony color on chromogenic TSA II with 5% sheep blood (chromogen in medium)"}, "[14]": {"tested_on": "Staphylococcus Coag Neg (step)", "assay": "Example 3: colony color on chromogenic TSA II with 5% sheep blood (chromogen in medium)", "settings": "for Colony Color: 21 h"}, "[15]": {"tested_on": "S. milleri (stmi)", "assay": "Example 3: colony color on chromogenic TSA II with 5% sheep blood (chromogen in medium)"}, "[16]": {"tested_on": "S. pneumoniae (stpn)", "assay": "Example 3: colony color on chromogenic TSA II with 5% sheep blood (chromogen in medium)"}, "[17]": {"tested_on": "S pyogenes (stpy)", "assay": "Example 3: colony color on chromogenic TSA II with 5% sheep blood (chromogen in medium)", "settings": "for Colony Color: 21 h"}, "[18]": {"tested_on": "55 strains", "assay": "Example 3: color, hemolytic activity and growth over all 55 strains", "settings": "chromogenic TSA II", "source_text": "Steers, E. et al., Antibiot."}, "[19]": {"tested_on": "cakr 34135", "assay": "Example 3: colony color on chromogenic TSA II with 5% sheep blood (chromogen in medium)", "settings": "CO2, 21 h"}, "[20]": {"tested_on": "milu 9341", "assay": "Example 3: colony color on chromogenic TSA II with 5% sheep blood (chromogen in medium)", "settings": "CO2, 21 h"}, "[21]": {"settings": "chromogenic TSA II with 5% Sheep Blood, 0.1 g/l, 3 strains tested"}, "[22]": {"settings": "chromogenic TSA II with 5% Sheep Blood, 0.1 g/l, 2 strains tested"}, "[23]": {"settings": "chromogenic TSA II with 5% Sheep Blood, 0.1 g/l, 6 strains tested"}, "[24]": {"settings": "chromogenic TSA II with 5% Sheep Blood, 0.1 g/l, 1 strain tested"}, "[25]": {"settings": "chromogenic TSA II with 5% Sheep Blood, 0.1 g/l, 5 strains tested"}}, "note": "Like-named read-outs stand apart in the source and are kept apart here."}
{"smiles": "O=S(=O)([O-])Oc1c[nH]c2ccc(Br)c(Cl)c12.[K+]", "note": "[X-Sulf, 5-Br-4-Cl-3-indolyl-sulfate (Potassium salt)]", "values": [{"measurement": "Colony Color", "setting": "[1]; aehy 7965", "value": 0}, {"measurement": "Colony Color", "setting": "[1]; aehy 7966", "value": 0}, {"measurement": "Colony Color", "setting": "[1]; aehy 49847", "value": 0}, {"measurement": "Colony Color (Summary)", "setting": "[1]; [21]", "value": 0}, {"measurement": "Colony Color", "setting": "[2]; brca 25238", "value": 0}, {"measurement": "Colony Color", "setting": "[2]; brca 25240", "value": 0}, {"measurement": "Colony Color (Summary)", "setting": "[2]; [22]", "value": 0}, {"measurement": "Colony Color", "setting": "[3]; CO2", "value": 0}, {"measurement": "Colony Color", "setting": "[3]; air", "value": 0}, {"measurement": "Colony Color (Summary)", "setting": "[3]; [22]", "value": 0}, {"measurement": "Colony Color", "setting": "[4]; One strain of Citrobacter", "value": "grey blue"}, {"measurement": "Colony Color (Summary)", "setting": "[4]; [22]", "value": "+"}, {"measurement": "Colony Color", "setting": "[4]; cifr 8454, CO2, 21 h", "value": 0}, {"measurement": "Colony Color", "setting": "[4]; cifr 33128, CO2, 21 h", "value": "gb"}, {"measurement": "Colony Color (Summary)", "setting": "[5]; [23]", "value": 0}, {"measurement": "Colony Color", "setting": "[5]; enfa 597, CO2, 21 h", "value": 0}, {"measurement": "Colony Color", "setting": "[5]; enfa 597, air, 21 h", "value": 0}, {"measurement": "Colony Color", "setting": "[5]; enfa 10741, CO2, 21 h", "value": 0}, {"measurement": "Colony Color", "setting": "[5]; enfa 10741, air, 21 h", "value": 0}, {"measurement": "Colony Color", "setting": "[5]; enfa 12953, CO2, 21 h", "value": 0}, {"measurement": "Colony Color", "setting": "[5]; enfa 12953, air, 21 h", "value": 0}, {"measurement": "Colony Color", "setting": "[5]; enfa 14506, CO2, 21 h", "value": 0}, {"measurement": "Colony Color", "setting": "[5]; enfa 14506, air, 21 h", "value": 0}, {"measurement": "Colony Color", "setting": "[5]; enfa 29212, CO2, 21 h", "value": 0}, {"measurement": "Colony Color", "setting": "[5]; enfa 29212, CO2, 24 h", "value": 0}, {"measurement": "Colony Color", "setting": "[5]; enfa 29212, air, 21 h", "value": 0}, {"measurement": "Colony Color", "setting": "[5]; enfa 29212, air, 24 h", "value": 0}, {"measurement": "Colony Color (Summary)", "setting": "[6]; [24]", "value": 0}, {"measurement": "Colony Color", "setting": "[6]; CO2", "value": 0}, {"measurement": "Colony Color", "setting": "[6]; air", "value": 0}, {"measurement": "Colony Color (Summary)", "setting": "[7]; [21]", "value": 0}, {"measurement": "Colony Color", "setting": "[7]; esco 11775, CO2, 21 h", "value": 0}, {"measurement": "Colony Color", "setting": "[7]; esco 25922, CO2, 24 h", "value": 0}, {"measurement": "Colony Color", "setting": "[7]; esco 25922, air, 24 h", "value": 0}, {"measurement": "Colony Color", "setting": "[7]; esco 33605, CO2, 21 h", "value": 0}, {"measurement": "Colony Color (Summary)", "setting": "[8]; [21]", "value": 0}, {"measurement": "Colony Color", "setting": "[8]; klpn 13883, CO2, 21 h", "value": 0}, {"measurement": "Colony Color", "setting": "[8]; klpn 33495, CO2, 24 h", "value": 0}, {"measurement": "Colony Color", "setting": "[8]; klpn 33495, air, 24 h", "value": 0}, {"measurement": "Colony Color", "setting": "[8]; klpn 33606, CO2, 21 h", "value": 0}, {"measurement": "Colony Color (Summary)", "setting": "[9]; [21]", "value": 0}, {"measurement": "Colony Color", "setting": "[9]; psae 9027", "value": 0}, {"measurement": "Colony Color", "setting": "[9]; psae 15442", "value": 0}, {"measurement": "Colony Color", "setting": "[9]; psae 33607", "value": 0}, {"measurement": "Colony Color (Summary)", "setting": "[10]; [22]", "value": 0}, {"measurement": "Colony Color", "setting": "[10]; saty 19430", "value": 0}, {"measurement": "Colony Color", "setting": "[10]; satym 14028", "value": 0}, {"measurement": "Colony Color (Summary)", "setting": "[11]; [24]", "value": 0}, {"measurement": "Colony Color", "setting": "[11]; sema 13880, CO2, 21 h", "value": 0}, {"measurement": "Colony Color (Summary)", "setting": "[12]; [21]", "value": 0}, {"measurement": "Colony Color", "setting": "[12]; stag 4768, CO2, 21 h", "value": 0}, {"measurement": "Colony Color", "setting": "[12]; stag 4768, air, 21 h", "value": 0}, {"measurement": "Colony Color", "setting": "[12]; stag 12386, CO2, 21 h", "value": 0}, {"measurement": "Colony Color", "setting": "[12]; stag 12386, CO2, 24 h", "value": 0}, {"measurement": "Colony Color", "setting": "[12]; stag 12386, air, 24 h", "value": 0}, {"measurement": "Colony Color (Summary)", "setting": "[13]; [25]", "value": 0}, {"measurement": "Colony Color", "setting": "[13]; stau 1006, CO2, 21 h", "value": 0}, {"measurement": "Colony Color", "setting": "[13]; stau 1007, CO2, 21 h", "value": 0}, {"measurement": "Colony Color", "setting": "[13]; stau 1008, CO2, 21 h", "value": 0}, {"measurement": "Colony Color", "setting": "[13]; stau 1009, CO2, 21 h", "value": 0}, {"measurement": "Colony Color", "setting": "[13]; stau 25923, CO2, 24 h", "value": 0}, {"measurement": "Colony Color", "setting": "[13]; stau 25923, air, 24 h", "value": 0}, {"measurement": "Colony Color (Summary)", "setting": "[14]; [25]", "value": 0}, {"measurement": "Colony Color", "setting": "[14]; step 12228, CO2", "value": 0}, {"measurement": "Colony Color", "setting": "[14]; step 12228, air", "value": 0}, {"measurement": "Colony Color", "setting": "[14]; step cdc1, CO2", "value": 0}, {"measurement": "Colony Color", "setting": "[14]; step cdc1, air", "value": 0}, {"measurement": "Colony Color", "setting": "[14]; step cdc2, CO2", "value": 0}, {"measurement": "Colony Color", "setting": "[14]; step cdc2, air", "value": 0}, {"measurement": "Colony Color", "setting": "[14]; step cdc3, CO2", "value": 0}, {"measurement": "Colony Color", "setting": "[14]; step cdc3, air", "value": 0}, {"measurement": "Colony Color", "setting": "[14]; step cdc4, CO2", "value": 0}, {"measurement": "Colony Color", "setting": "[14]; step cdc4, air", "value": 0}, {"measurement": "Colony Color (Summary)", "setting": "[15]; [22]", "value": 0}, {"measurement": "Colony Color", "setting": "[15]; stmi 6249, air, 21 h", "value": 0}, {"measurement": "Colony Color (Summary)", "setting": "[16]; [23]", "value": 0}, {"measurement": "Colony Color", "setting": "[16]; stpn 1259, CO2, 21 h", "value": 0}, {"measurement": "Colony Color", "setting": "[16]; stpn 1260, CO2, 21 h", "value": 0}, {"measurement": "Colony Color", "setting": "[16]; stpn 1628, CO2, 21 h", "value": 0}, {"measurement": "Colony Color", "setting": "[16]; stpn 6303, CO2, 24 h", "value": 0}, {"measurement": "Colony Color", "setting": "[16]; stpn 6303, air, 24 h", "value": 0}, {"measurement": "Colony Color", "setting": "[16]; stpn 6305, CO2, 24 h", "value": 0}, {"measurement": "Colony Color", "setting": "[16]; stpn 6305, air, 24 h", "value": 0}, {"measurement": "Colony Color (Summary)", "setting": "[17]; [23]", "value": 0}, {"measurement": "Colony Color", "setting": "[17]; stpy 1027, CO2", "value": 0}, {"measurement": "Colony Color", "setting": "[17]; stpy 1028, CO2", "value": 0}, {"measurement": "Colony Color", "setting": "[17]; stpy 1029, CO2", "value": 0}, {"measurement": "Colony Color", "setting": "[17]; stpy 1030, CO2", "value": 0}, {"measurement": "Colony Color", "setting": "[17]; stpy 19615, CO2", "value": 0}, {"measurement": "Colony Color", "setting": "[17]; stpy 19615, air", "value": 0}, {"measurement": "Colony Color", "setting": "[17]; stpy 49117, CO2", "value": 0}, {"measurement": "Colony Color", "setting": "[17]; stpy 49117, air", "value": 0}, {"measurement": "Colony Color", "setting": "[17]; stpy 51339, CO2", "value": 0}, {"measurement": "Colony Color", "setting": "[17]; stpy 51339, air", "value": 0}, {"measurement": "Activity (color) for most organisms", "setting": "[18]", "value": "inactive"}, {"measurement": "Colony Color", "setting": "[19]", "value": 0}, {"measurement": "Colony Color", "setting": "[20]", "value": 0}]}
